Like-named read-outs stand apart in the source and are kept apart here.
Columns and labels:
[1] = molecular target: Beta Secretase enzyme (BACE) (Homo sapiens, UniProt P56817); experiment: In vitro enzymatic BACE FRET assay; type: biochemical; details: read-out: BACE1 FRET assay IC50
In short: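 Enzyme (0.2 nM) pre-incubated 1 h with serially diluted inhibitors in 0.05 M acetate pH 4.2, 10% DMSO, 100 uM genapol. Reaction started with 50 nM fluorophore/quencher peptide FRET substrate, run 1 h, stopped with Tris to neutral pH. Fluorescence read at excitation 488 nm, […].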

[2] = test system: Aβ 40 in conditioned medium of cells stably expressing Amyloid Precursor Protein (APP); experiment: In vitro BACE cell-based assay (Aβ 40 sandwich ELISA); details: Homo sapiens, HEK293
In short: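 APP-expressing cells, 24 h pre-culture in DMEM/10% FBS, treated 24 h with 10-point compound dilutions from 100 or 10 μM top, 0.1% DMSO final. Secreted Aβ40 quantified by sandwich ELISA (pAb40 capture, biotinylated 6E10 detection, europium TRF); IC50 from percent inhibition versus concentration.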

Cathepsin D (Cat D) = Cathepsin D (Cat D) (Homo sapiens, UniProt P07339); experiment: In vitro enzymatic Cathepsin D (Cat D) FRET assay; type: biochemical
Cathepsin D (Cat D), sequence (P07339 65-412, species assumed): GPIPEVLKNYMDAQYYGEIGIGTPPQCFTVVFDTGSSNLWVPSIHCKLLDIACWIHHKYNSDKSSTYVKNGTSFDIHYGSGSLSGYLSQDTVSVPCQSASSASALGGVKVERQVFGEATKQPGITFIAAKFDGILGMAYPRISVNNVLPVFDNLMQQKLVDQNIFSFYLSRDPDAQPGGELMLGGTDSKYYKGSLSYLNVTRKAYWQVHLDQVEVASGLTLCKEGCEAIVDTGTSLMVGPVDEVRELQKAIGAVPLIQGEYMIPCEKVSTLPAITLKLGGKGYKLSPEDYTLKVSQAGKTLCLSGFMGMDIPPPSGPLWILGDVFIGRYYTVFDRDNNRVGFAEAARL
In short: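 Recombinant CHO-expressed enzyme (9 nM) pre-incubated 1 h with serially diluted inhibitor in 0.05 M citrate pH 3.5, 10% DMSO final, 5 mM CHAPS. Reaction started with 20 nM FRET peptide substrate, run 1 h, stopped with Tris to neutral pH; fluorescence read at ex 500/em 580 nm.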

[3] = average IC50, in vitro enzymatic BACE FRET assay
[4] = average IC50, HEK cell assay, Aβ 40 readout
[5] = Cathepsin D FRET assay, read-out: CatD IC50
[6] = text summary referring to data in Table 2

Beta Secretase enzyme (BACE), sequence (P56817 46-501): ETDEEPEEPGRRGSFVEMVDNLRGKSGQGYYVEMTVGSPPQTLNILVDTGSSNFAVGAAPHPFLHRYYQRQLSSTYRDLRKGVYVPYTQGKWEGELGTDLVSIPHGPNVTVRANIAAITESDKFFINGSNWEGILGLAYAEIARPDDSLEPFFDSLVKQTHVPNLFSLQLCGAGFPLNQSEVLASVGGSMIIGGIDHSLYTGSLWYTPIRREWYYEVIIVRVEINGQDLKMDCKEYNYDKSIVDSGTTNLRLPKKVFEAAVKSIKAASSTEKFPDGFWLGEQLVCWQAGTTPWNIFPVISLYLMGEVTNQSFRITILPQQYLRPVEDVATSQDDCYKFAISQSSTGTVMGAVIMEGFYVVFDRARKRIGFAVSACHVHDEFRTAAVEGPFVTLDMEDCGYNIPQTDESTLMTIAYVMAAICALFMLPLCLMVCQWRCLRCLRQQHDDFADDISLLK

| IC50 [1, 3] [µM] | IC50 [2, 4] [µM] | IC50 (Cathepsin D (Cat D); [5]) [µM] | IC50 (Cathepsin D (Cat D); [6]) [µM] | IC50 ([1]; average IC50) [µM] | IC50 ([2]; HEK cells, average IC50) [µM] | IC50 (Cathepsin D (Cat D); read-out: CatD IC50) [µM] | IC50 ([2]; HEK cell, average IC50) [µM] | Structure (SMILES) |
| --- | --- | --- | --- | --- | --- | --- | --- | --- |
| 0.016 | 0.072 | 1310 | > 1200 |  |  |  |  | C[C@H]1C[C@@H]2[C@](C)(N=C(N)C(C)(C)S2(=O)=O)c2cc(NC(=O)c3cnc(OCc4cnn(C)c4)cn3)ccc2O1 [Example 81, N-((4aR,6S,11bR)-2-amino-3,3,6,11b-tetramethyl-4,4-dioxido-4a,5,6,11b-tetrahydro-3H-[1]benzoxepino[4,5-b][1,4]thiazin-10-yl)-5-((1-methyl-1H-pyrazol-4-yl)methoxy)-2-pyrazinecarboxamide] |
| 0.005 | 0.004 | 804 |  |  |  |  |  | C[C@H]1C[C@@H]2[C@](C)(N=C(N)C(C)(C)S2(=O)=O)c2cc(Nc3nccc4nc(OCc5ccn(C)n5)cnc34)ccc2O1 [Example 146, (4aR,6S,11bR)-3,3,6,11b-tetramethyl-N^~10^~-(2-((1-methyl-1H-pyrazol-3-yl)methoxy)pyrido[3,4-b]pyrazin-5-yl)-4a,5,6,11b-tetrahydro-3H-[1]benzoxepino[4,5-b][1,4]thiazine-2,10-diamine 4,4-dioxide] |
|  |  |  |  | 0.017 | 0.0074 | 1130 |  | COc1cnc(C(=O)Nc2ccc3c(c2)[C@@]2(C)N=C(N)C(C)(C)S(=O)(=O)[C@@H]2CCO3)cn1 [Example 166, N-((4aR,11bR)-2-amino-3,3,11b-trimethyl-4,4-dioxido-4a,5,6,11b-tetrahydro-3H-[1]benzoxepino[4,5-b][1,4]thiazin-10-yl)-5-methoxy-2-pyrazinecarboxamide] |
|  |  |  |  | 0.014 |  | 656 | 0.011 | Cc1cc(Cl)cnc1C(=O)Nc1cnc2c(c1)[C@@]1(C)N=C(N)C3(CCC3)S(=O)(=O)[C@H]1CCO2 [Example 58, N-((4a′S,11b′R)-2′-amino-11b′-methyl-4′,4′-dioxido-4a′,5′,6′,11b′-tetrahydrospiro[cyclobutane-1,3′-pyrido[3′,2′:6,7]oxepino[4,5-b][1,4]thiazin]-10′-yl)-5-chloro-3-methyl-2-pyridinecarboxamide] |
|  |  |  |  | 0.016 | 0.064 | 1240 |  | Cc1cc(OCC(F)(F)F)cnc1C(=O)Nc1ccc2c(c1)[C@@]1(C)N=C(N)C(C)(C)S(=O)(=O)[C@@H]1CCO2 [Example 187, N-((4aR,11bR)-2-amino-3,3,11b-trimethyl-4,4-dioxido-4a,5,6,11b-tetrahydro-3H-[1]benzoxepino[4,5-b][1,4]thiazin-10-yl)-3-methyl-5-(2,2,2-trifluoroethoxy)-2-pyridinecarboxamide] |
|  |  |  | > 1200 | 0.067 |  | 2980 | 0.032 | COc1cnc(C(=O)Nc2ccc3c(c2)[C@@]2(C)N=C(N)C(C)(C)S(=O)(=O)[C@@H]2CCC3)c(C)c1 [Example 42, N-((4aR,11bR)-2-amino-3,3,11b-trimethyl-4,4-dioxido-3,4a,5,6,7,11b-hexahydrobenzo[3,4]cyclohepta[1,2-b][1,4]thiazin-10-yl)-5-methoxy-3-methyl-2-pyridinecarboxamide] |
|  |  |  | > 1200 | 0.003 |  | 1040 | 0.001 | Cc1cc(C#N)cnc1C(=O)Nc1ccc2c(c1)[C@@]1(C)N=C(N)C(C)(C)S(=O)(=O)[C@@H]1CCC2 [Example 12, N-((4aR,11bR)-2-amino-3,3,11b-trimethyl-4,4-dioxido-3,4a,5,6,7,11b-hexahydrobenzo[3,4]cyclohepta[1,2-b][1,4]thiazin-10-yl)-5-cyano-3-methyl-2-pyridinecarboxamide] |
| 0.004 | 0.017 | 385 |  |  |  |  |  | C#CCOc1cnc2c(Nc3ccc4c(c3)[C@@]3(C)N=C(N)C(C)(C)S(=O)(=O)[C@@H]3CC(C)(C)O4)nccc2n1 [Example 141, (4aR,11bR)-3,3,6,6,11b-pentamethyl-N^~10^~-(2-(2-propyn-1-yloxy)pyrido[3,4-b]pyrazin-5-yl)-4a,5,6,11b-tetrahydro-3H-[1]benzoxepino[4,5-b][1,4]thiazine-2,10-diamine 4,4-dioxide] |
| 0.184 | 0.21 | 995 |  |  |  |  |  | CC1(C)C(N)=N[C@]2(CF)c3cc(NC(=O)c4cnc(C(F)(F)F)cn4)ccc3OCC[C@H]2S1(=O)=O [Example 121, N-((4aR,11bS)-2-amino-11b-(fluoromethyl)-3,3-dimethyl-4,4-dioxido-4a,5,6,11b-tetrahydro-3H-[1]benzoxepino[4,5-b][1,4]thiazin-10-yl)-5-(trifluoromethyl)-2-pyrazinecarboxamide] |
|  |  |  | > 1200 | 0.172 |  | 1890 | 0.031 | COc1cnc(C(=O)Nc2ccc3c(c2)[C@@]2(C)N=C(N)C(C)(C)S(=O)(=O)[C@H]2CCC3)cn1 [Example 8, N-((4aS,11bR)-2-amino-3,3,11b-trimethyl-4,4-dioxido-3,4a,5,6,7,11b-hexahydrobenzo[3,4]cyclohepta[1,2-b][1,4]thiazin-10-yl)-5-methoxy-2-pyrazinecarboxamide] |
|  |  |  |  | 0.018 |  | 680 | 0.125 | C[C@]12N=C(N)C3(CCC3)S(=O)(=O)[C@@H]1CCOc1ncc(Nc3nccc4cc(Cl)cnc34)cc12 [Example 61] |
| 0.033 | 0.098 | 1180 |  |  |  |  |  | CC1(C)C(N)=N[C@]2(C)c3cc(NC(=O)c4ccc(OCC(F)F)cn4)ccc3OCC[C@H]2S1(=O)=O [Example 96, N-((4aR,11bR)-2-amino-3,3,11b-trimethyl-4,4-dioxido-4a,5,6,11b-tetrahydro-3H-[1]benzoxepino[4,5-b][1,4]thiazin-10-yl)-5-(2,2-difluoroethoxy)-2-pyridinecarboxamide] |
|  |  |  | > 1200 | 0.002 |  | 1050 | 0.0009 | C[C@H]1C[C@@H]2[C@](C)(N=C(N)C(C)(C)S2(=O)=O)c2cc(NC(=O)c3cnc(OCc4ncco4)cn3)ccc2O1 [Example 76, N-((4aR,6S,11bR)-2-amino-3,3,6,11b-tetramethyl-4,4-dioxido-4a,5,6,11b-tetrahydro-3H-[1]benzoxepino[4,5-b][1,4]thiazin-10-yl)-5-(1,3-oxazol-2-ylmethoxy)-2-pyrazinecarboxamide] |
|  |  |  |  | 0.007 | 0.009 | 619 |  | COc1cnc2c(Nc3ccc4c(c3)[C@@]3(C)N=C(N)C(C)(C)S(=O)(=O)[C@@H]3CCO4)ncnc2c1 [Example 162, (4aR,11bR)-N^~10^~-(7-methoxypyrido[3,2-d]pyrimidin-4-yl)-3,3,11b-trimethyl-4a,5,6,11b-tetrahydro-3H-[1]benzoxepino[4,5-b][1,4]thiazine-2,10-diamine 4,4-dioxide] |
|  |  |  | > 1200 | 0.022 |  | 2920 | 0.115 | COc1cnc(C(=O)Nc2ccc3c(c2)[C@@]2(C)N=C(N)C(C)(C)S(=O)(=O)[C@]2(F)CCO3)cn1 [Example 67, N-((4aR,11bR)-2-amino-4a-fluoro-3,3,11b-trimethyl-4,4-dioxido-4a,5,6,11b-tetrahydro-3H-[1]benzoxepino[4,5-b][1,4]thiazin-10-yl)-5-methoxy-2-pyrazinecarboxamide] |
| 0.011 | 0.014 | > 400 |  |  |  |  |  | Cc1cc(C(F)(F)F)cnc1C(=O)Nc1ccc2c(c1)[C@@]1(CF)N=C(N)C(C)(C)S(=O)(=O)[C@H]1CCO2 [Example 116, N-((4aS,11bS)-2-amino-11b-(fluoromethyl)-3,3-dimethyl-4,4-dioxido-4a,5,6,11b-tetrahydro-3H-[1]benzoxepino[4,5-b][1,4]thiazin-10-yl)-3-methyl-5-(trifluoromethyl)-2-pyridinecarboxamide] |
|  |  |  |  | 0.017 |  | 396 | 0.005 | Cc1c(C(=O)Nc2ccc3c(c2)[C@@]2(C)N=C(N)C(C)(C)S(=O)(=O)[C@@H]2C[C@H](C)O3)nc2ccc(Cl)cn12 [Example 77, N-((4aR,6S,11bR)-2-amino-3,3,6,11b-tetramethyl-4,4-dioxido-4a,5,6,11b-tetrahydro-3H-[1]benzoxepino[4,5-b][1,4]thiazin-10-yl)-6-chloro-3-methylimidazo[1,2-a]pyridine-2-carboxamide] |
| 0.003 | 0.002 | 316 |  |  |  |  |  | CC1(C)C[C@@H]2[C@](C)(N=C(N)C(C)(C)S2(=O)=O)c2cc(Nc3nccc4cc(C#N)cnc34)ccc2O1 [Example 112, 8-(((4aR,11bR)-2-amino-3,3,6,6,11b-pentamethyl-4,4-dioxido-4a,5,6,11b-tetrahydro-3H-[1]benzoxepino[4,5-b][1,4]thiazin-10-yl)amino)-1,7-naphthyridine-3-carbonitrile] |
| 0.006 | 0.009 | 954 | > 800 |  |  |  |  | Cc1cc(C#CC2CC2)cnc1C(=O)Nc1ccc2c(c1)[C@@]1(C)N=C(N)C(C)(C)S(=O)(=O)[C@@H]1CCO2 [Example 83, N-((4aR,11bR)-2-amino-3,3,11b-trimethyl-4,4-dioxido-4a,5,6,11b-tetrahydro-3H-[1]benzoxepino[4,5-b][1,4]thiazin-10-yl)-5-(cyclopropylethynyl)-3-methyl-2-pyridinecarboxamide] |

— US9309263B2, “Fused multi-cyclic sulfone compounds as inhibitors of beta-secretase and methods of use thereof” (AMGEN INC., priority 2013, dated 2016)
